# Results reported in patent publication US20230204565A1, “Methods for Culturing Cancer Cells and for Inhibiting Invasion of Cancer” (The Regents of the University of California, priority 2020, published 2023).
# Entries after “also recorded” stand apart in the source; their conditions may differ.
# Columns and labels:
# [1] = Proliferation, cell titer blue assay; format: cell-based; settings: any time point, n=5
# From the text: FIG. 12D. Transplants of primary glioblastoma tumors into cortical organoids. Proliferation as indicated by cell titer blue assay is shown for PTPRZ1 shScr (Ctrl) or shPTPRZ1 (KD). […] On the right, an invasion well with white lines added to mark the bounds of the invasion chamber.
# [2] = tested on: DBTRGFL patient derived xenograft line; test: Time-lapse imaging of MST after shRNA knockdown in PDX line; format: cell-based, human; settings: 4 technical replicates
# Experimental: FIG. 6A. PTPRZ1 Promotes MST driven invasiveness of glioblastoma.
# Dissociated tumor cells were seeded onto matrigel coated glass bottom wells. 24 hours after plating cells were infected with a CMV-adeno-GFP virus (Vector Biolabs) to allow for visualization of cell morphology and behavior. Cell were cultured at 37° C., 5% CO2, and 8% O2, and monitored for GFP and expression (~ 24 to 48 h). Cultured cells were then transferred to an inverted Leica TCS SP5 with an on-stage incubator (while streaming 5% CO2, 5% O2, balance N2 into the chamber), and imaged in both the GFP and transmitted light channels using a × 10 objective at 15-20 min intervals for up to 4. Movies were analyzed with Imaris.
# [3] = tested on: primary developing human cortex cells and primary glioblastoma cells; test: Single-cell RNA sequencing after PTPRZ1 knockdown; format: cell-based; settings: primary and glioblastoma samples
# From the text: FIG. 5F. Sorting for PTPRZ1 positive cells enriches for oRG-like cells. Workflow of single-cell sequencing is shown. PTPRZ1 KD and a scrambled control were used to knockdown PTPRZ1 in both primary developing human cortex cells and primary glioblastoma cells. […] (* = p-value < 0.05). […] These changes were accompanied by a significant downregulation of several outer radial glia marker genes.
# Primary cells (GW 17, n = 2) and primary tumor samples (n = 2) were dissociated and infected with lentivirus either with a hairpin against PTPRZ1 mRNA or a control hairpin during plating. Cells were maintained in their normal media conditions for 1 week, after which cells were removed from the plate with trypsinization, dissociated into a single-cell suspension, and captured with 10X v2 single-cell as previously described.
# To better understand the molecular mechanism of PTPRZ1 signaling in glioblastoma tumor propagation, and to characterize how these cells differ from normal radial glia, in vitro KD was performed of PTRPZ1 in dissociated cell culture of primary developing cortex, primary tumor dissociated cell culture, and PDX dissociated cell culture. […] Each control/treatment pair was analyzed individually and the radial glia populations were isolated for further examination (FIG. 5F). […]
# [4] = tested on: PTPRZ1; test: Validation of knockdown (immunofluorescence, Western blot, qPCR); format: cell-based, human; settings: vs scrambled control hairpin
# Experimental: FIG. 12B. Transplants of primary glioblastoma tumors into cortical organoids. […] Western blot and qPCR to validate knockdown (quantified across 3 replicates for qPCR) were also performed.
# [5] = tested on: patient derived xenograft (PDX) line DBTRGFL; test: In vitro invasion assay (gap filling); format: cell-based, human; settings: imaged every 24 hours, Day 0 to Day 3, vs scrambled shRNA control
# Experimental: FIG. 6B. PTPRZ1 Promotes MST driven invasiveness of glioblastoma. Invasion assays of patient derived xenograft (PDX) line DBTRGFL were performed with control (scrambled shRNA), PTPRZ1 knockdown (shRNA) and Rock Inhibition. Invasions were imaged every 24 hours, and Day 0 and Day 3 are shown. Quantification was performed by calculating how much of the gap was filled. Statistics were performed for both PTPRZ1 knockdown and Rock inhibition, and statistics are showing for Rock inhibition on top and PTPRZ1 knockdown below (* = p <0.05, ** p < 0.01, *** p < 0.001, Student’s two-sided t-test).
# PTPRZ1 and its ligand, PTN, are identified in this disclosure as necessary for tumor invasion and viability. It was tested whether the expression of PTPRZ1 is required for the role of oRG-like cells in glioblastoma invasion using genetic and pharmacologic approaches. Previous work has linked PTPRZ1 and PTN with the Rho/Rho-kinase (ROCK) signaling pathway in glioblastoma. […] Given that the functional significance of key oRG markers such as PTPRZ1 remains unknown, and the role of MST has not been previously described in glioblastoma, the role of PTPRZ1/PTN signaling in oRG cell behavior was studied. shRNA mediated knock down of both PTPRZ1 and PTN in oRG cells was used during normal human development and the impact on MST was monitored. […]
# [6] = tested on: oRG cells; test: Time-lapse imaging of mitotic somal translocation (MST) after shRNA knockdown, primary cortical slice culture; format: cell-based, human; settings: for length of MST (somal translocation length): oRG cells during normal human development, primary slice culture, vs scrambled control hairpin
# From the text: As described by Hansen et al. (2010), human fetal brain tissue was collected and transported in artificial CSF (ACSF; 125 mm NaCl, 2.5 mm KCI, 1 mm MgCl2, 2 mm CaCl2, 1.25 mm NaH2PO4, 25 mm NaHCO3, 25 mm d-(+)-glucose, bubbled with 95%O2/5%CO2). Brain tissue was embedded in 3% low melting point agarose in ACSF and 250-300 µm coronal vibratome sections were generated. Sections were transferred on Millicell-CM slice culture inserts (Millipore) and cultured in cortical slice culture medium (66% BME, 25% Hanks, 5% FBS, 1% N-2, 1% penicillin, streptomycin and glutamine, all Invitrogen, and 0.66% d-(+)-glucose, Sigma-Aldrich). High titer gfp labeled lentivirus was applied directly to slices that were then cultured at 37° C., 5% CO2, 8% O2 for ~ 96 h. For time-lapse imaging, cultures were then transferred to an inverted Leica TCS SP5 with an on-stage incubator streaming 5% CO2, 5% O2, balance N2 into the chamber. Slices were imaged for GFP using a 10x objective at 15-30 min intervals for up to 3 d with repositioning of the z-stacks every ~12 h. Movies were analyzed with Imaris.
# PTPRZ1 and its ligand, PTN, are identified in this disclosure as necessary for tumor invasion and viability. It was tested whether the expression of PTPRZ1 is required for the role of oRG-like cells in glioblastoma invasion using genetic and pharmacologic approaches. Previous work has linked PTPRZ1 and PTN with the Rho/Rho-kinase (ROCK) signaling pathway in glioblastoma. […] Given that the functional significance of key oRG markers such as PTPRZ1 remains unknown, and the role of MST has not been previously described in glioblastoma, the role of PTPRZ1/PTN signaling in oRG cell behavior was studied. shRNA mediated knock down of both PTPRZ1 and PTN in oRG cells was used during normal human development and the impact on MST was monitored. […] To relate these findings to invasive behavior, in vitro invasion assays were performed on PDX tumor samples treated with either control, scrambled shRNAs, PTPRZ1 shRNAs, or Rock inhibitor to inhibit MST.
Substance,"Proliferation, difference shScr (Ctrl) vs shPTPRZ1 (KD) [1]",length of MST (somal translocation length) [2],"proportion of radial glia and other progenitor populations ([3]; 1 week after lentiviral infection, vs scrambled hairpin)",expression of other key markers of radial glia identity ([3]; radial glia populations),PTPRZ1 protein knockdown [4],invasive behavior of the PDX tumors [5],length of MST (somal translocation length) [6],"somal translocation length ([6]; primary samples, 3 biological replicates and 4 technical replicates each (FIG. 6A))"
"PTPRZ1 shRNA: short hairpin RNA against PTPRZ1 mRNA, lentivirus-delivered; exemplary sequence SEQ ID NO: 5 (CCGGCCAGACAACAAGCACAAGAATCTCGAGATTCTTGTGCTTGTTGTCTGGTTTTT)",not significant,similarly impacted the length of MST; also recorded: decrease the length of somal translocation length,decrease in the proportion of both radial glia and other progenitor populations,down-regulated,validates protein knockdown,significantly decreased the invasive behavior,significantly reduced the length of MST; also recorded: decrease the length of somal translocation length,decrease the length of somal translocation length
"PTN shRNA: short hairpin RNA knocking down PTN, the ligand of PTPRZ1; exemplary sequence SEQ ID NO: 6 (CCGGAGGCAAGAAACAGGAGAAGATCTCGAGATCTTCTCCTGTTTCTTGCCTTTTTT)",,,,,,,significantly reduced the length of MST; also recorded: decrease the length of somal translocation length,
